Experimental data published in patent US12466840B2, “Small molecule inhibitors of KRAS proteins” (Merck Sharp & Dohme LLC, priority 2023, dated 2025).
Read-outs that look alike come from different tables or passages of the source.

Assays:
KRAS G12A = KRAS G12A (Homo sapiens (Human), UniProt P01116, G12A); experiment: SOS-catalyzed nucleotide exchange assay (GNE), KRAS G12A; format: biochemical; conditions: TR-FRET, 60 min preincubation
Excerpt: (§1) Procedure for SOS-Catalyzed Nucleotide Exchange Assay for KRAS-WT, G12C/D/V/A/R/S, G13D, Q61H, HRAS-WT, and NRAS-WT
(§2) Recombinant KRAS-G12C protein used in this assay has an additional triple mutation (C51S/C80L/C118S). Whereas KRAS-WT, G12D/V/A/S/R, G13D, Q61H, HRAS and NRAS are in context of their WT protein sequence background. Specifically, the SOS-catalyzed nucleotide exchange assay utilizes a preformed TR-FRET complex containing a specific biotinylated RAS protein (KRAS-WT, G12C/V/D/A/S/R, G13D, Q61H, HRAS-WT, NRAS-WT; described above) with Bodipy-GDP, and Terbium-streptavidin. Compounds are preincubated with this complex for 60 minutes. Subsequently, recombinant human SOS protein and unlabeled GTP are added to initiate the exchange reaction. Small molecule inhibitors stabilize the Bodipy-GDP complex whereas the untreated protein rapidly exchanges Bodipy-GDP for unlabeled GTP resulting in reduced TR-FRET signal.
(§3) To assemble the preformed TR-FRET complexes, each biotinylated RAS protein is diluted to 2 μM in an EDTA Buffer (20 mM HEPES pH 7.5, 50 mM sodium chloride, 10 mM EDTA, and 0.01% Tween) and incubated at room temperature for one hour. This mixture is then further diluted to 90 nM in an Assay Buffer (20 mM HEPES pH 7.5, 150 mM sodium chloride, 10 mM magnesium chloride, and 0.005% Tween) containing 15 nM of Terbium-Streptavidin (Invitrogen, catalog #PV3577) and 900 nM of Bodipy-GDP (Invitrogen, catalog #G22360) and incubated at room temperature for six hours. It should be noted that this preformed TR-FRET complex for each of the RAS protein were made ahead of time, aliquoted and stored at −80° C. until the day of the experiment.
(§4) Each test compound (10 mM stock in DMSO) is diluted in DMSO to make a final-10-point, 3-fold dilution and is acoustically dispensed into a 384-well assay plate (Corning, catalog #3820) using an Echo 550 (Labcyte). Each well of the assay plate receives 3 μL of a specific 3×RAS preformed TR-FRET complex and 3 μL of Assay Buffer and is incubated at room temperature for 60 minutes (preincubation time). Each well then receives 3 μL of 3× recombinant human SOS protein and GTP (Sigma, G8877) in Assay Buffer and is incubated at room temperature for 30 minutes (G13D), 60 minutes (KRAS WT/G12C/D, H/NRAS) or 90 minutes for G12A/R/S/V and Q61H. The final reaction in each well of 9 μL consists of 3 mM GTP, specific Ras and SOS proteins in the following concentrations: KRAS-G12C/SOS=3 nM/40 nM, KRAS-WT and G12D/SOS=1 nM/40 nM, KRAS-G12V/SOS=1.25 nM/160 nM, KRAS-G12A/S/SOS=1 nM/160 nM, KRAS-G12R/SOS=1 nM/320 nM, KRAS-Q61H/SOS=1 nM/320 nM, KRAS-G13D/SOS=1.25 nM/[…], HRAS-WT and NRAS-WT=1.25 nM/40 nM.
(§5) The time-resolved fluorescence resonance energy transfer (TR-FRET) signal is measured on an Envision (PerkinElmer) plate reader: Excitation filter=340 nm; emission1=495 nm; emission2=520 nm; dichroic mirror=D400/D505; delay time=[…]. The signal of each well is determined as the ratio of the emission at 520 nm to that at 495 nm. Percent effect of each well is determined after normalization to control wells containing DMSO (no effect) or a saturating concentration of inhibitor (max effect). The apparent effect as a function of compound concentration is fit to a four-parameter logistic equation.

[1] = test system: SW620 cells (homozygous KRAS-G12V); experiment: Cellular phospho-ERK assay, SW620 cells; format: cell-based; conditions: p-ERK vs. total ERK, read-out: SW620 pERK IC50
Protocol: Procedure for Cellular Phospho-ERK Assay in KRAS Wild Type and Mutant (G12D, G12V) Cell Lines
MKN-1 cells (JCRB JCRB0252) containing amplified wild-type KRAS, were cultured in growth medium that contains RPMI 1640-GlutaMAX™-I (ThermoFisher Scientific 61870) containing 10% heat inactivated fetal bovine serum (ThermoFisher Scientific 10091148), 1 mM sodium pyruvate and 10 mM HEPES. AsPC-1 cells (ATCC® CRL-1682™), containing homozygous KRAS-G12D activating mutation, were cultured in T150 flask in growth medium (RPMI medium 1640-GlutaMAX™-I (ThermoFisher Scientific 61870) containing 10% fetal bovine serum (ThermoFisher Scientific 10091148)). SW620 cells (ATCC® CRL-227™) containing homozygous KRAS-G12V activating mutation, were cultured in growth medium that contains RPMI 1640-GlutaMAX™-I (ThermoFisher Scientific 61870) containing 10% heat inactivated fetal bovine serum (ThermoFisher Scientific 10091148).
Cells for the assay were harvested in growth medium after TrypLE (ThermoFisher scientific 12604021) digestion and were seeded in a 384-well collagen coated cell culture plate (Corning 356702) at a density of 10,000-15,000 cells/[…]/well, and incubated at 37° C., 5% CO2 overnight. The compound (with 10 mM stock concentration) dose-response titrations were prepared [30 μM final ERK detection assay concentration and 1:3 dilutions, 10-point dose response] and appropriate amounts (270 nL) of test compounds were dispensed in a 384-well intermediate plate using an Echo 550 liquid handler. 30 μL/well of RPMI medium 1640-GlutaMAX™-I was added to the intermediate plate and the contents of the intermediate plate (10 μL/well) were then transferred to the 384-well collagen coated cell culture plate, which was incubated at 37° C., 5% CO2 for 2 h. After removal of medium from the collagen coated cell culture plate, cells were lysed in lysis buffer from Alpha SureFire® Ultra™ Multiplex p-ERK and total ERK assay kit (PerkinElmer MPSU-PTERK) containing Halt™ Protease and Phosphatase inhibitor cocktail (ThermoFisher Scientific 78446) at room temperature with constant shaking at 300 rpm for 30 minutes. The cell lysates were then transferred to an OptiPlate-384 plate (PerkinElmer 6005620), and the phosphorylation of ERK (p-ERK) and total ERK levels were detected by Alpha SureFire® Ultra™ Multiplex p-EEK kit and total ERK assay kit (PerkinElmer MPSU-PTERK) following the manufacturer's protocol. Assay plates were read on a EnVision Multimode Plate Reader (PerkinElmer), and the ratio of p-ERK vs. total ERK in each well was used as the final readout. Dose response curves were analyzed using a 4-parameter logistic model to calculate IC50 values using Spotfire software.

KRAS G12R = KRAS G12R (Homo sapiens (Human), UniProt P01116, G12R); experiment: SOS-catalyzed nucleotide exchange assay (GNE), KRAS G12R; format: biochemical; conditions: TR-FRET, 60 min preincubation
Excerpt: as §1, §2, §3, §4, §5

KRAS Q61H = KRAS Q61H (Homo sapiens (Human), UniProt P01116, Q61H); experiment: SOS-catalyzed nucleotide exchange assay (GNE), KRAS Q61H; format: biochemical; conditions: TR-FRET, 60 min preincubation
Excerpt: as §1, §2, §3, §4, §5

Chain of KRAS Q61H (P01116 other isoform, or with tags, fused parts or gaps Q61H (already in the parent)): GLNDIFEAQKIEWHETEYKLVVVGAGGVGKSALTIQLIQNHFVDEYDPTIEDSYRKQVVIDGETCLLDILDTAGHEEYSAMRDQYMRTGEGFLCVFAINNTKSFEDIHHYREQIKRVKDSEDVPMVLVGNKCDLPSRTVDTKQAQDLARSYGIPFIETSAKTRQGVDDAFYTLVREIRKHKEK
Chain of KRAS G12R (P01116 other isoform, or with tags, fused parts or gaps G12R (already in the parent)): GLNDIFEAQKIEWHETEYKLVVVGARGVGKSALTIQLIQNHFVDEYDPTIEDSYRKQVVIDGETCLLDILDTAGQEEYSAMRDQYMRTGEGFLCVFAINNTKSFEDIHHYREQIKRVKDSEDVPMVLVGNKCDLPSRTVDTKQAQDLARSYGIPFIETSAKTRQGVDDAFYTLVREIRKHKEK
Chain of KRAS G12A (P01116 other isoform, or with tags, fused parts or gaps G12A (already in the parent)): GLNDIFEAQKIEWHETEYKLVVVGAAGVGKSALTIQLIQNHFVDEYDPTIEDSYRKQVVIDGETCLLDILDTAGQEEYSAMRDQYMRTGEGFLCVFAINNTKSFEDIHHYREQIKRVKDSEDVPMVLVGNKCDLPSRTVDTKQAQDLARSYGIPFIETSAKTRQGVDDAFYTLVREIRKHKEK

| SMILES | IC50 (KRAS G12A) [nM] | IC50 ([1]; Homo sapiens, SW-620, 2 h) [nM] | IC50 (KRAS G12R) [nM] | IC50 (KRAS Q61H) [nM] | IC50 ([1]; 2 h) [nM] |
| --- | --- | --- | --- | --- | --- |
| CCc1c(F)ccc2cc3[nH]nc(C)c3c(-c3nc4c5c(nc(OC[C@@]67CCCN6C[C@H](F)C7)nc5c3F)N3CCCOC[C@H]3CO4)c12 [Ex-6, (8aS)-5-(5-ethyl-6-fluoro-3-methyl-1H-benzo[f]indazol-4-yl)-4-fluoro-2-(((2R,7aS)-2-fluorotetrahydro-1H-pyrrolizin-7a(5H)-yl)methoxy)-8a,9,12,13-tetrahydro-8H,11H-7,10-dioxa-1,3,6,13a-tetraazanaphtho[1,8-ab]heptalene] | 1 | 3.4 | 1.2 | 1.8 | – |
| F/C=C1/CN2CCC[C@@]2(COc2nc3c4c(nc(-c5c(C6CC6)c(Cl)cc6[nH]ncc56)c(F)c4n2)OC[C@@H]2COCCCN32)C1 [Ex-1, (8aS)-5-(6-chloro-5-cyclopropyl-1H-indazol-4-yl)-4-fluoro-2-(((S,Z)-2-(fluoromethylene)tetrahydro-1H-pyrrolizin-7a(5H)-yl)methoxy)-8a,9,12,13-tetrahydro-8H,11H-7,10-dioxa-1,3,6,13a-tetraazanaphtho[1,8-ab]heptalene] | < 0.69 | – | < 0.69 | 1.4 | 2.6 |
| CCc1c(F)ccc2cc3[nH]ncc3c(-c3nc4c5c(nc(OC[C@@]67CCCN6C[C@H](F)C7)nc5c3F)N3CCCOC[C@H]3CO4)c12 [Ex-2, (8aS)-5-(5-ethyl-6-fluoro-1H-benzo[f]indazol-4-yl)-4-fluoro-2-(((2R,7aS)-2-fluorotetrahydro-1H-pyrrolizin-7a(5H)-yl)methoxy)-8a,9,12,13-tetrahydro-8H,11H-7,10-dioxa-1,3,6,13a-tetraazanaphtho[1,8-ab]heptalene] | < 0.69 | – | < 0.69 | 1.2 | 2.4 |
| CCc1c(F)ccc2cc3[nH]ncc3c(-c3nc4c5c(nc(OC[C@@]67CCCN6C/C(=C\F)C7)nc5c3F)N3CCCOC[C@H]3CO4)c12 [Ex-4, (8aS)-5-(5-ethyl-6-fluoro-1H-benzo[f]indazol-4-yl)-4-fluoro-2-(((S,Z)-2-(fluoromethylene)tetrahydro-1H-pyrrolizin-7a(5H)-yl)methoxy)-8a,9,12,13-tetrahydro-8H,11H-7,10-dioxa-1,3,6,13a-tetraazanaphtho[1,8-ab]heptalene] | < 0.69 | < 1.5 | < 0.69 | 1 | – |
| F/C=C1\CN2CCC[C@@]2(COc2nc3c4c(nc(-c5c(C6(F)CC6)c(Cl)cc6[nH]ncc56)c(F)c4n2)OC[C@@H]2COCCCN32)C1 [Ex-5, (8aS)-5-(6-chloro-5-(1-fluorocyclopropyl)-1H-indazol-4-yl)-4-fluoro-2-(((S,Z)-2-(fluoromethylene)tetrahydro-1H-pyrrolizin-7a(5H)-yl)methoxy)-8a,9,12,13-tetrahydro-8H,11H-7,10-dioxa-1,3,6,13a-tetraazanaphtho[1,8-ab]heptalene] | 0.83 | 1.3 | 1.3 | 0.97 | – |
| CCc1c(F)ccc2cc3[nH]nc(C)c3c(-c3nc4c5c(nc(OC[C@@]67CCCN6C/C(=C\F)C7)nc5c3F)N3CCCOC[C@H]3CO4)c12 [Ex-7, (8aS)-5-(5-ethyl-6-fluoro-3-methyl-1H-benzo[f]indazol-4-yl)-4-fluoro-2-(((S,Z)-2-(fluoromethylene)tetrahydro-1H-pyrrolizin-7a(5H)-yl)methoxy)-8a,9,12,13-tetrahydro-8H,11H-7,10-dioxa-1,3,6,13a-tetraazanaphtho[1,8-ab]heptalene] | 1.3 | – | 1.3 | 2.8 | 2.5 |
| Fc1c(-c2c(C3CC3)c(Cl)cc3[nH]ncc23)nc2c3c(nc(OC[C@@]45CCCN4C[C@H](F)C5)nc13)N1CCCOC[C@H]1CO2 [Ex-3, (8aS)-5-(6-chloro-5-cyclopropyl-1H-indazol-4-yl)-4-fluoro-2-(((2R,7aS)-2-fluorotetrahydro-1H-pyrrolizin-7a(5H)-yl)methoxy)-8a,9,12,13-tetrahydro-8H,11H-7,10-dioxa-1,3,6,13a-tetraazanaphtho[1,8-ab]heptalene] | – | 3.9 | – | – | – |
